Source: patent US12612627B2, “Compositions and methods for increasing sodium current in cardiac cells” (REGENTS OF THE UNIVERSITY OF MINNESOTA, priority 2020, dated 2026)

What was measured:
miR-448 = miR-448 level by qPCR in RL14 human cardiomyocytes; assay type: cell-based; conditions: for increase of miR-448 by deferoxamine: then deferoxamine six hours; for miR-448 expression: RL14 cells stimulated with hypoxia-mimetic chemical for 24 hours, normalized with RNU6
Protocol: Human fetal cardiomyocyte cell line RL14 (ATCC RL-14, ATCC, Manassas, VA) cells were grown in DMEM/F-12 nutrient mixture (GE Healthcare Life Sciences, Logan, UT) supplemented with 12.5% (v/v) fetal bovine serum (Gibco, Grand Island, NY) and penicillin-streptomycin (10,000 U/mL; Gibco, Grand Island, NY). HEK293T cells were maintained in DMEM high glucose supplemented with 10% fetal bovine serum and penicillin-streptomycin. hiPSC-cardiomyocytes (iCELL Cardiomyocytes) were obtained from Cellular Dynamics International (Madison, WI). iCELL cardiomyocytes were seeded and maintained using iCELL Cardiomyocyte Plating Medium and Maintenance Medium (FUJIFILM Cellular Dynamics, Inc., Madison, WI). For hypoxic conditions, the cells were cultured in an hypoxic incubator chamber (STEMCELL Technologies, Vancouver, BC) using pre-incubated culture media or were treated with hypoxic-mimetic chemicals, deferoxamine (DFX) and cobalt chloride (CoCl2) (Sigma-Aldrich, St. Louis, MO) as previously described (Chachami et al., 2004, Am J Respir Cell Mol Biol 31:544-551; Woo et al, 2006, Biochem Biophys Res Commun 343:8-14).
Syn-hsa-miR-448 miScript miRNA mimic, anti-hsa-miR-448 miScript miRNA inhibitor, and its negative controls were purchased from Qiagen (Valencia, CA). REST siRNA and its negative control were obtained from Integrated DNA Technologies (Coralville, IA). The cells were transfected using HiPerFect Transfection Reagent (Qiagen, Valencia, CA) following the recommendations of the manufacturer. Plasmid DNA was transfected into cultured cells using SuperFect transfection reagent (Qiagen, Valencia, CA) following the manufacturer's protocol.
Total RNA was prepared using RNeasy Plus Mini Kit or miRNeasy Mini Kit (Qiagen, Valencia, CA) according to the manufacturer's instructions. Reverse transcription was performed with a First Strand cDNA Synthesis kit (Promega, Madison, WI). cDNA for miRNA detection was generated by the miScript II RT Kit (Qiagen, Valencia, CA). A reverse transcription quantitative real-time PCR was performed with SYBR Green PCR Master Mix (Thermo Fisher Scientific, Waltham, MA) using the 7500Fast Real-Time PCR system (Thermo Fisher Scientific, Waltham, MA) and miScript SYBR Green PCR Kit with miScript primer assays to detect the expression of miRNA. The primer sequences were as follows:
Hs_miR-448_1 miScript Primer Assay (5′-[…]-3′; (SEQ ID NO:1; Qiagen, Valencia, CA) was used for detecting miR-448, and the Hs_RNU6-2_11 miScript Primer Assay (Qiagen, Valencia, CA) was used as an endogenous control. The relative fold change was calculated by the 2^−ΔΔCt method, and the measurements were normalized with respect to the endogenous control (RNU6, GAPDH).

Nav1.5 = Nav1.5 protein level by Western blotting in RL14 human cardiomyocytes; assay type: cell-based; conditions: cardiomyocytes treated for 24 hours
Protocol: Human fetal cardiomyocyte cell line RL14 (ATCC RL-14, ATCC, Manassas, VA) cells were grown in DMEM/F-12 nutrient mixture (GE Healthcare Life Sciences, Logan, UT) supplemented with 12.5% (v/v) fetal bovine serum (Gibco, Grand Island, NY) and penicillin-streptomycin (10,000 U/mL; Gibco, Grand Island, NY). HEK293T cells were maintained in DMEM high glucose supplemented with 10% fetal bovine serum and penicillin-streptomycin. hiPSC-cardiomyocytes (iCELL Cardiomyocytes) were obtained from Cellular Dynamics International (Madison, WI). iCELL cardiomyocytes were seeded and maintained using iCELL Cardiomyocyte Plating Medium and Maintenance Medium (FUJIFILM Cellular Dynamics, Inc., Madison, WI). […]
Cells were washed twice with ice-cold PBS and disrupted in Cell Lysis Buffer (Cell Signaling Technology, Danvers, MA) with Protease and Phosphatase Inhibitor Cocktail (Thermo Fisher Scientific, Waltham, MA) on ice for 30 minutes. […] The total protein concentration was quantified using the BCA Protein Assay Kit (Pierce, Thermo Fisher Scientific, Waltham, MA). […]
After TBST washing, the membrane was incubated with horseradish peroxidase (HRP)-conjugated secondary antibody (1:5000) for 90 min at room temperature. […] The images were analyzed using ImageJ software to measure band density. […]

## Cc1ccc(S(=O)(=O)/C=C/C#N)cc1 [Bay11-7028]
miR-448; 0.5 μM or 2 μM for 30 minutes
  increase of miR-448 by deferoxamine: inhibited

## O=S(=O)(NCCSSCCNS(=O)(=O)c1cc(Cl)ccc1Cl)c1cc(Cl)ccc1Cl [KC7F2]
miR-448; 5 μM or 20 μM for 30 minutes
  increase of miR-448 by deferoxamine: inhibited

## C=CCONC(=O)c1ccc2nc(-c3ccccc3O)[nH]c2c1 [X5050]
Nav1.5
  Nav1.5 protein level: decreased

## [Cl][Co][Cl] [cobalt chloride]
miR-448
  miR-448 expression: increased

## COC(=O)CNC(=O)C(=O)OC [dimethyloxallyl glycine]
miR-448
  miR-448 expression: increased
